For one assay, the target named is MEK1 (Homo sapiens, UniProt Q02750). The settings on record: read-out: Primary Target(s) (IC50): MEK1; cited from earlier work.
A further assay deals with SKMEL147. Briefly: Melanoma cell viability (CellTiter-Glo). The class given is cell-based, human. The following applies: for HuMax-AXL-ADC sensitivity: 0.0001 to 10 µg/mL, 5 days. A general note: ATP-based viability assays read luminescence as a measure of living cells.
The test system of the next assay is A375R. Briefly: Melanoma cell viability (CellTiter-Glo). The class given is cell-based, human.
Another assay concerns M082. As to the kind of experiment: Patient-derived melanoma culture viability (CellTiter-Glo). In kind it is cell-based, human. The following applies: for HuMax-AXL-ADC sensitivity: 8 days.
The subject of another assay is SKMEL28. As to the kind of experiment: Melanoma cell viability (CellTiter-Glo). The class given is cell-based, human. The following applies: for HuMax-AXL-ADC sensitivity: 0.0001 to 10 µg/mL, 5 days.
For a further assay, the system named is BLM. As to the kind of experiment: NRAS mutant melanoma cell viability (CellTiter-Glo). In kind it is cell-based, human.
The subject of another assay is M019R. Briefly: Patient-derived melanoma culture viability (CellTiter-Glo). The class given is cell-based, human.
Another assay concerns SKMEL2. Briefly: NRAS mutant melanoma cell viability (CellTiter-Glo). The class given is cell-based, human.
The subject of the next assay is SKMEL2R. The assay is described as above. In kind it is cell-based, human.
The test system of the next assay is A875. As to the kind of experiment: Melanoma cell viability (CellTiter-Glo). The class given is cell-based, human. The settings on record: for HuMax-AXL-ADC sensitivity: 0.0001 to 10 µg/mL, 5 days.
The test system of a further assay is M016. Briefly: Patient-derived melanoma culture viability (CellTiter-Glo). The class given is cell-based, human. The following applies: for HuMax-AXL-ADC sensitivity: 8 days.
The subject of the next assay is FM6. Briefly: NRAS mutant melanoma cell viability (CellTiter-Glo). The class given is cell-based, human.
A further assay has as its system SKMEL28R. Briefly: Melanoma cell viability (CellTiter-Glo). In kind it is cell-based, human. The following applies: for HuMax-AXL-ADC sensitivity: 0.0001 to 10 µg/mL, 5 days.
A further assay deals with MAP4K5 (KHS1) (Homo sapiens, UniProt Q9Y4K4). The settings on record: Bollag et al., 2010; read-out: Primary Target(s) (IC50): MAP4K5 (KHS1); cited from earlier work.
MAP4K5 (KHS1), sequence (Q9Y4K4 whole entry, species assumed): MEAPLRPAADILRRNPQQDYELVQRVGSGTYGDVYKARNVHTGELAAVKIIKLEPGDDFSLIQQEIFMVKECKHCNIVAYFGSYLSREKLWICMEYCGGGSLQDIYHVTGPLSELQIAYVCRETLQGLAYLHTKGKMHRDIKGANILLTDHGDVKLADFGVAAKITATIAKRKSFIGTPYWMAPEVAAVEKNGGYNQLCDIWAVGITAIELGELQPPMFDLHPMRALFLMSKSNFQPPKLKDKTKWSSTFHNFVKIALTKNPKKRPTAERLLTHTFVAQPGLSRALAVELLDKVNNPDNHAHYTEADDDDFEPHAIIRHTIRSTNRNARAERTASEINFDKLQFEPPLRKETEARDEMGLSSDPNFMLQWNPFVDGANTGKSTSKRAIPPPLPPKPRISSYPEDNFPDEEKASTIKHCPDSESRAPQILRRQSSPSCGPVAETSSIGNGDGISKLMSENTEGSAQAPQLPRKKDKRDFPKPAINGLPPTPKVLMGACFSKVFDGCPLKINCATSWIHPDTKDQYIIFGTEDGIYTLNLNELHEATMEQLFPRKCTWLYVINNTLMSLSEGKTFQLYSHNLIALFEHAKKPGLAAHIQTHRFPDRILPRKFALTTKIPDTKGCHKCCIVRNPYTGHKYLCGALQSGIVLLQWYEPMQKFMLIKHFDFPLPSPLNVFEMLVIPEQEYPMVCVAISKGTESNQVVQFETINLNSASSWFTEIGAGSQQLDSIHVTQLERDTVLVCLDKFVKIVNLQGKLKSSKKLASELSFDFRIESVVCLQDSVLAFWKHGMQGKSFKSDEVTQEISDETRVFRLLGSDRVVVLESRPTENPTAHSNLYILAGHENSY
The next assay deals with SKMEL147 tumors. As to the kind of experiment: SKMEL147 melanoma xenograft model. In kind it is in vivo, NMRI nude mice.
A further assay deals with A431 cells. Briefly: Antibody-dependent cell-mediated cytotoxicity (51Cr release). The following applies: concentrations up to 10 µg/mL; PBMC effector to target ratio 100:1. In kind it is cell-based, human. On the procedure: The ability of anti-AXL antibodies to induce ADCC of A431 epidermoid carcinoma cells was determined as explained below. As effector cells, peripheral blood mononuclear cells from healthy volunteers (UMC Utrecht, The Netherlands) were used.
A431 cells were collected (5×10^6 cells) in culture medium (RPMI 1640 culture medium supplemented with 10% fetal calf serum (FSC)), to which 100 µCi ^51Cr (Chromium-51; Amersham Biosciences Europe GmbH, Roosendaal, The Netherlands) had been added, and the mixture was incubated in a 37° C. water bath for 1 hour (hr) while shaking. After washing of the cells (twice in PBS, 1200 rpm, 5 min), the cells were resuspended in RPMI1640/10% FSC and counted by trypan blue exclusion. […]
Peripheral blood mononuclear cells (healthy volunteers, UMC Utrecht, Utrecht, The Netherlands) were isolated from 45 mL of freshly drawn heparin blood by Ficoll (Bio Whittaker; lymphocyte separation medium, cat 17-829E) according to the manufacturer’s instructions. After resuspension of cells in RPMI1640/10% FSC, cells were counted by trypan blue exclusion and diluted to a density of 1×10^7 cells/mL.
50 µl of ^51Cr-labeled targets cells were pipetted into 96-well plates, and 50 µl of antibody were added, diluted in RPMI1640/10% FSC (3-fold dilutions at final concentrations range 0.01-10 µg/mL). […] The percentage specific lysis was calculated as follows: […]

For a further assay, the system named is C-Raf/BRAF/BRAF V600E. The following applies: read-out: Primary Target(s) (IC50): C-Raf/BRAF/BRAF V600E; Mordant et al., 2010; cited from earlier work.
Another assay relates to A431 tumors. As to the kind of experiment: A431 xenograft model (high Gas6). In kind it is in vivo, SCID mice. The settings on record: 3 mg/kg. On the procedure:
Tumor induction was performed by subcutaneous injection of 5 × 10^6 A431 or LCLC-103H tumor cells (both obtained from Leibniz-Institut - Deutsche Sammlung von Mikroorganismen und Zellkulturen GmbH (DSMZ)) in 200 µL PBS in the right flank of female SCID mice. Treatment was started 14-21 days after tumor cell inoculation, when the average tumor size was >100-200 mm^3 and distinct tumor growth was observed. Mice received a single injection or a total of 4 biweekly intraperitoneal injections with IgG1-AXL-vcMMAE ADCs or control antibody (unconjugated IgG1-b12), as indicated. Tumor volume was determined at least two times per week. Tumor volumes (mm^3) were calculated from caliper (PLEXX) measurements as: 0.52 × (length) × (width)^2.

The test system of assay [1] is LCLC-103H xenograft tumors. As to the kind of experiment: LCLC-103H xenograft model. The class given is in vivo, SCID mice. As to the method:
5 × 10^6 LCLC-103H (large cell lung carcinoma) tumor cells (obtained from Leibniz-Institut DSMZ-Deutsche Sammlung von Mikroorganismen und Zellkulturen GmbH (DSMZ)) in 200 µL PBS were injected subcutaneously in the right flank of female SCID mice. Starting 14-21 days after tumor cell inoculation, when the average tumor size was >100-200 mm^3 and distinct tumor growth was observed, a single injection with 1 mg/kg (20 µg/mouse) IgG1-AXL-vcMMAE antibodies (as described in Supplementary Example 1) or control (unconjugated IgG1-b12) was given intraperitoneally (100 µL/mouse). Tumor volume was determined at least two times per week. Tumor volumes (mm^3) were calculated from caliper (PLEXX) measurements as: 0.52 × (length) × (width)^2.
Tumor induction was performed by subcutaneous injection of 5 × 10^6 A431 or LCLC-103H tumor cells (both obtained from Leibniz-Institut - Deutsche Sammlung von Mikroorganismen und Zellkulturen GmbH (DSMZ)) in 200 µL PBS in the right flank of female SCID mice. Treatment was started 14-21 days after tumor cell inoculation, when the average tumor size was >100-200 mm^3 and distinct tumor growth was observed. […] Tumor volume was determined at least two times per week. Tumor volumes (mm^3) were calculated from caliper (PLEXX) measurements as: 0.52 × (length) × (width)^2.

The subject of another assay is COLO679. As to the kind of experiment: Melanoma cell viability (CellTiter-Glo). The class given is cell-based, human. The settings on record: 0.0001 to 10 µg/mL, 5 days.
In another assay the test system is PAXF1657 tumors. As to the kind of experiment: PAXF1657 pancreas cancer PDX model. The class given is in vivo, NMRI nu/nu mice. The following applies: day 0.
A further assay addresses C-Raf (Homo sapiens, UniProt P04049). The settings on record: literature reference per drug in Table 1; read-out: Primary Target(s) (IC50): C-Raf (also printed Raf-1, C-Raf-1, C-RAF); cited from earlier work.
For a further assay, the system named is T1, MEK½.
T1 construct: other: Pheneger et al., 2006
The following applies: Pheneger et al., 2006; read-out: Primary Target(s) (IC50): MEK½; cited from earlier work.

Where [2] appears, read: 4 mg/kg i.v. on day 12 and day 19 after tumor cell injection.

pIC50: −log10 of the molar value. Where “and” joins values, the source holds several entries; their conditions need not be identical. Equal entries are not always repeated.

This is an account of results in patent publication US20230321261A1, “AXL-SPECIFIC ANTIBODY-DRUG CONJUGATES FOR CANCER TREATMENT” (GENMAB A/S, priority 2016, published 2023).

C-Raf, sequence (P04049 whole entry): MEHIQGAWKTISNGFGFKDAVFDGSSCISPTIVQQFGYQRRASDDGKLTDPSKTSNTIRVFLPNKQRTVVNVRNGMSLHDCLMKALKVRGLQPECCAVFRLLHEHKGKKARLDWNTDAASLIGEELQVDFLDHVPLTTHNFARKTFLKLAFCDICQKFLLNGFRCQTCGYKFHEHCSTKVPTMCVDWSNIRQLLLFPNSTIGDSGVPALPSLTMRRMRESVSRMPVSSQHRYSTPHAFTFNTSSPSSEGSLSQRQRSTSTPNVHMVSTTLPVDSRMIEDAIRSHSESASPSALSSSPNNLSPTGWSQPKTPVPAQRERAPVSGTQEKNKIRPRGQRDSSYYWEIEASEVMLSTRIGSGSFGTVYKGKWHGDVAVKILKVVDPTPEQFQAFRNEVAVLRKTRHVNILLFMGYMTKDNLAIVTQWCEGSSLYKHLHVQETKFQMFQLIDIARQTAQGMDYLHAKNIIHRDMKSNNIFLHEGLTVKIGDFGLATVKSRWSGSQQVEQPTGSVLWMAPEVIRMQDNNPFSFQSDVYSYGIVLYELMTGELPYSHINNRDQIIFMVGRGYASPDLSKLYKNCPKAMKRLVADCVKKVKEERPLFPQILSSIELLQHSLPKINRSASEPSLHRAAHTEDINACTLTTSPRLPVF
MEK1, sequence (Q02750 whole entry): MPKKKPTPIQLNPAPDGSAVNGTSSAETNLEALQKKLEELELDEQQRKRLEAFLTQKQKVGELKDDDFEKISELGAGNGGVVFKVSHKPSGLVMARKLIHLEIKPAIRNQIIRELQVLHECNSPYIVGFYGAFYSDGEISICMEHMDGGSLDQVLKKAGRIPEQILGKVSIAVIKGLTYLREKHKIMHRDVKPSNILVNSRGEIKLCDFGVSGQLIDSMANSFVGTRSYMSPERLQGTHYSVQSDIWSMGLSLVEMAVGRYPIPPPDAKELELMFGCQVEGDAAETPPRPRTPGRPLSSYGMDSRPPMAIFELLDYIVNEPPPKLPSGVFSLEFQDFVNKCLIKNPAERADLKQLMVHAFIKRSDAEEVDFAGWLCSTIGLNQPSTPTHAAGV

With `O=C(c1ccc(F)c(F)c1Nc1ccc(I)cc1F)N1CC(O)([C@@H]2CCCCN2)C1` [Cobimetinib, [3,4-difluoro-2-[(2-fluoro-4-iodophenyl)amino]phenyl][3-hydroxy-3-(2S)-2-piperidinyl-1-azetidinyl]-methanone], the pIC50 on MEK1 was around 8.38.

Turning to `CCCS(=O)(=O)Nc1ccc(F)c(C(=O)c2c[nH]c3ncc(Cl)cc23)c1F` [PLX4720, N-(3-(5-chloro-1H-pyrrolo[2,3-b]pyridine-3-carbonyl)-2,4-difluorophenyl)propane-1-sulfonamide], the PLX4720 sensitivity entry is “resistant” with SKMEL147; “resistant” in the assay with A375R; “resistant” with M082; “sensitive” in the assay on SKMEL28; “insensitive” in the assay on BLM; “resistant” in the assay with M019R (M019R (Table 16)). Further, the PLX4720 sensitivity result with SKMEL2 is listed as “insensitive”; with SKMEL2R it was “insensitive”; in the assay on A875 it was “sensitive”; with M016 it was “resistant”; in the assay on FM6, “insensitive”; in the assay on SKMEL28R, “resistant”. Also, in the assay with M019R (M019R, 8 days), the “drug sensitivity in vitro: PLX4720 sensitivity” value was “insensitive”.

For `CC(=O)Nc1cccc(-n2c(=O)n(C3CC3)c(=O)c3c(Nc4ccc(I)cc4F)n(C)c(=O)c(C)c32)c1` [Trametinib, N-(3-(3-cyclopropyl-5-(2-fluoro-4-iodophenylamino)-6,8-dimethyl-2,4,7-trioxo-3,4,6,7-tetrahydropyrido[4,3-d]pyrimidin-1(2H)-yl)phenyl)acetamide], the “drug sensitivity in vitro: trametinib sensitivity” value with M019R (M019R, 8 days) is reported as “insensitive”. The trametinib sensitivity result in the assay with SKMEL2 is listed as “sensitive”; in the assay with SKMEL2R, “insensitive”.

Take `CCCS(=O)(=O)Nc1ccc(F)c(C(=O)c2c[nH]c3ncc(-c4ccc(Cl)cc4)cc23)c1F` [Vemurafenib, N-[3-[[5-(4-chlorophenyl)-1H-pyrrolo[2,3-b]pyridin-3-yl]carbonyl]-2,4-difluorophenyl]-1-propanesulfonamide]: the pIC50 at MAP4K5 (KHS1) is 7.29.

As to “IgG1-AXL-107: AXL-specific human IgG1,κ antibody, VH SEQ ID NO:1, VL SEQ ID NO:2, Ig1 domain binding”, in the assay with SKMEL147 tumors (setting [2]), the “anti-tumor activity in the SKMEL147 melanoma xenograft model” value is “did not show tumor growth inhibition”. The “ADCC in A431 cells (percentage specific lysis)” value with A431 cells is “did not induce significant ADCC”.

In the case of `Cn1c(Nc2ccc(C(F)(F)F)cc2)nc2cc(Oc3ccnc(-c4ncc(C(F)(F)F)[nH]4)c3)ccc21` [RAF265, 1-methyl-5-[2-[5-(trifluoromethyl)-1H-imidazol-2-yl]pyridin-4-yl]oxy-N-[4-(trifluoromethyl)phenyl]benzimidazol-2-amine], the pIC50 in the assay with C-Raf/BRAF/BRAF V600E was 7.22 to 8.52.

As for IgG1-AXL-107-vcMMAE, the “anti-tumor activity in the A431 xenograft model” value with A431 tumors is on record as “growth inhibition”. Moreover, the HuMax-AXL-ADC sensitivity entry in the assay on SKMEL147 was “sensitive”; in the assay on SKMEL147 (listed as HuMax-AXL-ADC), “Sensitive”; in the assay with M082 it was “did not show a different response”; with M082 (listed as HuMax-AXL-ADC) it was “Insensitive”; in the assay with SKMEL28, “did not show changes in viability”; in the assay with SKMEL28 (listed as HuMax-AXL-ADC) it was “Resistant”. Besides, the HuMax-AXL-ADC sensitivity entry with A875 was “sensitive”; in the assay with A875 (listed as HuMax-AXL-ADC) it was “Sensitive”; with M016 it was “sensitive”; in the assay on M016 (listed as HuMax-AXL-ADC), “Sensitive”; in the assay with COLO679, “did not show changes in viability”; with COLO679 (listed as HuMax-AXL-ADC), “Resistant”. Further, the values for the HuMax-AXL-ADC sensitivity entry in the assay with SKMEL28R and with SKMEL28R (listed as HuMax-AXL-ADC) were “sensitive” and “Sensitive”, respectively. Besides, in [1] (1 mg/kg (Example 13, FIG. 14B)), the “anti-tumor activity in the LCLC-103H xenograft model” value is listed as “regression”. For the same compound, in [1] (single injection 1 mg/kg intraperitoneally (Example 9)), the “anti-tumor activity in established SC LCLC-103H tumors” value is “tumor regression”. For the same compound, the “anti-tumor activity in the SKMEL147 melanoma xenograft model” value is recorded as “tumor growth inhibition” in the assay with SKMEL147 tumors (2 mg/kg i.v. on day 12 and day 19 after tumor cell injection); “strong tumor regression” in the assay with SKMEL147 tumors (setting [2]); “profound anti-tumor effect” with SKMEL147 tumors (4 mg/kg i.v. on day 12 and day 19 after tumor cell injection, listed as HuMax-AXL-ADC). The “day until which tumor regression lasted” value with SKMEL147 tumors (4 mg/kg) is around 50 days. Further, the “effect of retreatment after tumor regrowth” value in the assay on SKMEL147 tumors (single dose of 4 mg/kg on day 55, n=4) is recorded as “tumor regression in all four mice”. The “growth of PAXF1657 tumors compared to the control group” value in the assay with PAXF1657 tumors (2 mg/kg i.v.) is recorded as “significantly reduced the growth”. Also, the “growth of PAXF1657 tumors” value in the assay with PAXF1657 tumors (4 mg/kg i.v.) is recorded as “induced tumor regression”.

For `CN(C)CCOc1ccc(-c2nc(-c3ccncc3)c(-c3ccc4c(c3)CC/C4=N\O)[nH]2)cc1` [SB590885, (E)-5-(2-(4-(2-(dimethylamino)ethoxy)phenyl)-4-(pyridin-4-yl)-1H-imidazol-5-yl)-2,3-dihydroinden-1-one oxime], on C-Raf, the pIC50 is 8.76.

Consider `Cn1cnc2c(F)c(Nc3ccc(Br)cc3F)c(C(=O)NOCCO)cc21` [Binimetinib, 1H-Benzimidazole-6-carboxamide, 5-[(4-bromo-2-fluorophenyl)amino]-4-fluoro-N-(2-hydroxyethoxy)-1-methyl-], for which, in the assay with MEK½, the pIC50 was ~7.92 and 7.92.
